The text below walks through data of patent US20130302782A1, “Methods for the Phenotypic Detection of HCV Inhibitor Resistant Subpopulations” (Laboratory Corporation of America Holdings, priority 2011, published 2013).

In this assay the test system is HCV replicon RTVs containing the NS5B region of Con1 or H77 reference and SDM mutants. The assay can be described thus: PhenoSense HCV NS5B Assay: luciferase replicon resistance test vector inhibitor susceptibility in Huh7 cells. In kind it is cell-based, hepatitis C virus. The note with it: MT:WT RTV mixtures 0-100% mutant; control inhibitor. The method, then:
RTV RNA was electroporated into a Huh7 cell line, and electroporated cells were incubated in the absence and presence of serially diluted inhibitors. RNA input was monitored by measuring the amount of luciferase activity produced in the electroporated cells at 4 hours post-electroporation. Luciferase activity is expressed as relative light units (RLU). Replication capacity (RC) was determined by evaluating luciferase activity at 72-96 hours postelectroporation in the absence of inhibitor, relative to RNA input and a control reference replicon RTV (Con1). A replication defective Con1 replicon (Con1 polymerase defective) was utilized to determine assay background (data not shown) Inhibitor susceptibility was determined by evaluating the ability of RTVs to replicate in the absence and presence of inhibitor at 72-96 hours post-electroporation. […]
Assay accuracy was assessed by evaluating the HCV polymerase inhibitor susceptibility of RTVs containing the NS5B region of well-characterized subtype 1a (H77) and 1b (Con1) reference sequences and subtype 1a and 1b reference sequences engineered by site-directed mutagenesis (SDM) to contain mutations that confer reduced susceptibility to inhibitors of HCV RdRp (FIG. 3) Inhibitor susceptibility data (IC50-FC and IC95-FC) were analyzed for concordance with phenotypic data reported in the scientific literature. […]

As for interferon [INF], the “susceptibility as a function of the proportion of MT RTV within a mixture” value is listed as “not affected”.
